Assay results from patent US9675072B2, “Tetrazolinone compound and application of same” (SUMITOMO CHEMICAL COMPANY, LIMITED, priority 2013, dated 2017).

Legend:
Format in all cases: in vivo
[1] = system: wheat leaf blotch fungus (Septoria tritici); assay: Wheat leaf blotch control test, foliage spray on wheat; conditions: Test Example 11; 200 ppm foliage spray; wheat (APOGEE); inoculated 4 days after spraying
[2] = system: rice blast fungus (Magnaporthe grisea); conditions: Test Example 7; 200 ppm foliage spray; rice (NIHONBARE); 6 days in contact with infected seedlings
[3] = system: barley net blotch fungus (Pyrenophora teres); assay: Barley net blotch control test, foliage spray on barley; conditions: barley (MIKAMO GOLDEN), inoculated 2 days after spraying
Method: (§1) The control effect was evaluated by visually observing the area of lesion spots on each of test plants at the time of investigation, and comparing the area of lesion spots on a plant treated with the present control agent with that on an untreated plant. The untreated plant is a plant tested under the same conditions as in Test Examples, except that foliage application of a diluted solution of a formulation containing the present compound with water is not performed.
Each of plastic pots was filled with sandy loam and barley (cultivar: MIKAMO GOLDEN) was sowed and grown in a greenhouse for 7 days. Each of the present compounds 1 to 8, 10 to 12, and 14 was diluted with water to adjust to a predetermined concentration of 500 ppm. The obtained diluted solution was sprayed over stems and leaves of the barley so that it sufficiently adhered to the surface of the leaves of the barley. After spraying, the plant was air-dried. After 2 days, an aqueous suspension containing spores of barley net blotch fungus (Pyrenophora teres) was sprayed to inoculate the spores. After completion of the inoculation, the plant was left to stand for 3 days in a greenhouse at 23° C. in the daytime and 20° C. at night under high humidity condition and cultivated in a greenhouse for 7 days, and then the area of lesion spots was investigated. […]

[4] = system: wheat rust fungus (Puccinia recondita); assay: Wheat rust control test, foliage spray on wheat; conditions: Test Example 8; 200 ppm foliage spray; wheat (SHIROGANE); inoculated 5 days after spraying
Method: as §1
Each of plastic pots was filled with sandy loam and wheat (cultivar: SHIROGANE) was sowed and grown in a greenhouse for 9 days. Each of the present compounds 1 to 5, 11, and 1 was diluted with water to adjust to a predetermined concentration of 500 ppm. The obtained diluted solution was sprayed over stems and leaves of the wheat so that they sufficiently adhered to the surface of the leaves of the wheat. After spraying, the plant was air-dried and cultivated at 20° C. for 5 days under illumination, and then inoculated by sprinkling with spores of wheat rust fungus (Puccinia recondita). After the inoculation, the plant was left to stand at 23° C. for one day under dark and high humidity condition, and cultivated under illumination at 20° C. for 8 days, and then the area of lesion spots was investigated. […]

[5] = system: cucumber powdery mildew fungus (Sphaerotheca fuliginea, a QoI-resistant strain, cytochrome b position 143 glycine to alanine); assay: Cucumber powdery mildew control test, foliage spray on cucumber; conditions: Test Example 6, 500 ppm foliage spray, cucumber (SAGAMI HANJIRO), 8 days after inoculation

COc1c(C(F)F)c(-c2ccc(OCc3ccccc3-n3nnn(C)c3=O)c(C)c2)nn1C [compound 9]
≤ 30%: area of lesion spots on treated plant relative to untreated plant [1]

COc1cc(-c2cc(C)c(OCc3ccccc3-n3nnn(C)c3=O)cc2C)nn1C [compound 14]
≤ 30%: lesion area on treated plant with respect to the lesion area on the non-treated plant [2] | area of lesion spots on treated plant relative to untreated plant ([3]; Test Example 3, 500 ppm foliage spray) | area of lesion spots on treated plant relative to untreated plant ([3]; Test Example 9, 200 ppm foliage spray) | area of lesion spots on treated plant relative to untreated plant [4] | area of lesion spots on treated plant relative to untreated plant [5]
